# Assay results from US20240238380A1, “COMPOSITION FOR COMBINATION THERAPY COMPRISING GROWTH DIFFERENTIATION FACTOR-15 VARIANT AND GLUCAGON-LIKE PEPTIDE-1 RECEPTOR AGONIST” (YUHAN CORPORATION, priority 2021, published 2024).
# Marks after values point to notes of the source that are not given here.
# Experiments:
# [1] = molecular target: T1, GFRAL/RET/SRE-luc-overexpressing HEK293 cell line (Homo sapiens, UniProt Q6UXV0); test: Functional activity of long-acting GDF15 fusion protein (Bright-Glo luciferase assay); assay type: cell-based; settings: relative to FM9-6+Fc_hole (Emax 100%)
# T1 construct: expressed in transfected cells; host or cells: HEK293 (human embryonic kidney 293), overexpressing GFRAL, RET and an SRE-luciferase reporter
# T1 sequence (Q6UXV0 19-394, species assumed): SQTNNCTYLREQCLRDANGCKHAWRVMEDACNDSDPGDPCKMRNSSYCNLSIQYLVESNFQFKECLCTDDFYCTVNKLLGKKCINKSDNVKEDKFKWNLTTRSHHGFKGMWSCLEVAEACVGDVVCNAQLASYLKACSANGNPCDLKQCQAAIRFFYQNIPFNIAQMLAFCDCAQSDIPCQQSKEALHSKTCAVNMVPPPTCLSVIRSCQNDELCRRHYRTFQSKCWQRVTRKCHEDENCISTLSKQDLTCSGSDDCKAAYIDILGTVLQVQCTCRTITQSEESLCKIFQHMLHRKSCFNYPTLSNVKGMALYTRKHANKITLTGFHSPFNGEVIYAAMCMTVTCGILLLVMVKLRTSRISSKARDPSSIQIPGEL
# T1 sequence (P07949 29-1114 partner, species assumed): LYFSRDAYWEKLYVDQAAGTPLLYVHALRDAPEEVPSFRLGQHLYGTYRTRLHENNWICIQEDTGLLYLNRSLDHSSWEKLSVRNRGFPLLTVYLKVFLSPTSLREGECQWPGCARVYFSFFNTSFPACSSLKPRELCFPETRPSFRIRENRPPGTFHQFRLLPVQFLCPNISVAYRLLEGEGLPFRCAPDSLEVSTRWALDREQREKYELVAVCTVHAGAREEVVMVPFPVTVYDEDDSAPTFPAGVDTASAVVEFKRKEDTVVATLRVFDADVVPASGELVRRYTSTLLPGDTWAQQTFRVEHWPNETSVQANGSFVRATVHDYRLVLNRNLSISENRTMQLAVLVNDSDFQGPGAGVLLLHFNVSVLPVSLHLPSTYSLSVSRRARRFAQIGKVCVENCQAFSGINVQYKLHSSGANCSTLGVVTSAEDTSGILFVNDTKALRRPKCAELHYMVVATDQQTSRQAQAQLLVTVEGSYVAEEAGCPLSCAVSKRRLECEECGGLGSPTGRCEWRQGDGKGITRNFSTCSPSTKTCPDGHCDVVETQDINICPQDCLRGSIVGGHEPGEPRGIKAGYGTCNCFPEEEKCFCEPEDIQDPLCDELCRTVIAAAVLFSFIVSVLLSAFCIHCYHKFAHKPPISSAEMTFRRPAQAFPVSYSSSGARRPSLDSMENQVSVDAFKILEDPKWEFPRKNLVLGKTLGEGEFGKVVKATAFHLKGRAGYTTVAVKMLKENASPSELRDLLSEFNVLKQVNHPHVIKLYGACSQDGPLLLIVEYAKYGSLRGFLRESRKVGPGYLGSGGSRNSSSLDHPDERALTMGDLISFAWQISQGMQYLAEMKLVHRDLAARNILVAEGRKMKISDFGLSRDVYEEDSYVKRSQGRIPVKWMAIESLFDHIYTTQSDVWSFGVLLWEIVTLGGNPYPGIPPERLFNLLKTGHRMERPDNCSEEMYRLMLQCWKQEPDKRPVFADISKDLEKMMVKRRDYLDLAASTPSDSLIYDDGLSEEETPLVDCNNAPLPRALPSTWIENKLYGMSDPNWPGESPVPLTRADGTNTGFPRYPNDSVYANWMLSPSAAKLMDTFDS
# Description: Two variants (FM9+Fc_hole, FM11+Fc_hole) were compared and evaluated for GDF15 activity depending on the linker type and length. The GDF15 activity was measured using a Bright-Glo™ luciferase assay kit (Promega) and a GFRAL/RET/SRE-luc-overexpressing HEK293 cell line (Human embryonic kidney 293).
# Specifically, 1×10^5 GFRAL/RET/SRE-luc-overexpressing HEK293 cells were dispended in DMEM containing 10% FBS in each well of a 96-well-plate, followed by culture at 37° C. and 5% CO2 for 24 hours. After 24 hours, each medium of the 96-well plate was replaced with 50 μl of a serum-free medium, followed by culture at 37° C. and 5% CO2 for 4 hours.
# In addition, the long-acting GDF15 fusion protein produced in Example 1 was prepared by 3-fold serial dilution from a concentration of 2000 nM using a serum-free medium. Thereafter, 50 μl of the long-acting GDF15 fusion protein dilution was added to each well containing 50 μl of the replaced serum-free medium and the GERAL/RET/SRE-luc cell line so that the actual concentration thereof was serially diluted 3-fold from 1000 nM, followed by reaction at 37° C. and 5% CO2 for 4 hours. After 4 hours, each well was treated with 100 μl of a Bright-Glo™ solution prepared by adding a Bright-Glo™ buffer to a Bright-Glo™ substrate, followed by reaction at room temperature for 1 minute.
# Thereafter, the reaction value (relative light units, RLU) was measured using a microplate reader (Perkin Elmer, Wallac Victor X5) capable of measuring luminescence. The results thereof are shown in Table 2 below and in FIGS. 1 and 2. Here, the functional activity of the long-acting GDF15 fusion protein depending on the GDF15 sequence, linker type, and length was compared based on the in-vitro GDF15 activity of FM9-6+Fc_hole (Emax 100%).
# [2] = Anti-obesity effect alone and in combination with semaglutide in diet-induced obese (DIO) mice (Example 4); assay type: in vivo; settings: for Change in body weight (%) vs. day 0, Maximum efficacy: 8 weeks
# From the text: Diet-induced obese (DIO) mice, obtained by feeding mice with high-fat food, are characterized by obesity, hyperglycemia, and insulin resistance. Diet-induced obese mice (Taconic, USA) resulting from feeding C57BL/6N mice with high-fat food (60 kcal % fat, Research Diets, Cat #D12492, USA) for 8 weeks were purchased from Raon Bio (Animal Inc., Republic of Korea). The diet-induced obese mice were additionally fed with 60% high-fat food for 5 weeks after arrival, and then used in the present test. On the day before drug treatment, the mice were grouped based on the average body weight of individual mice (n=6 per group), after which 10 and 30 nmol/kg of FM9-6+Fc_hole alone, 10 and 30 nmol/kg of semaglutide (long-acting GLP-1 derivative, SEQ ID NO: 114) alone as a control drug, and FM9-6+Fc_hole and semaglutide were administered subcutaneously every 2 days (Q2D) for a total of 8 weeks in a combination of 10+10 and 30+30 nmol/kg. The semaglutide that was used in the test was Ozempic® (semaglutide) from Novo NorDisk. Here, for vehicle treatment, DPBS (Dulbecco's phosphate-buffered saline, Gibco, USA) was subcutaneously administered every 2 days (Q2D). Body weight was measured every 2 days from the first day of drug treatment to day 54, and the results thereof are shown in Table 4 below.
substance,measurement,setting,value
"FM9-6 + Fc_hole: long-acting GDF15 fusion protein (dimer): GDF15 ΔN2, S64R, IgG1 Fc_knob/Fc_hole, linker GS(EAAAK)5; SEQ ID NOs: 103 and 47",Emax (%),[1],100.0%
same,"Change in body weight (%) vs. day 0, Maximum efficacy",[2]; 10 nmol/kg s.c. Q2D,−34.57 (On Day 54)**** %
same,"Change in body weight (%) vs. day 0, Efficacy on Day 54",[2]; 10 nmol/kg s.c. Q2D,−34.57**** %
same,"Change in body weight (%) vs. day 0, Maximum efficacy",[2]; 30 nmol/kg s.c. Q2D,−35.07 (On Day 54)**** %
same,"Change in body weight (%) vs. day 0, Efficacy on Day 54",[2]; 30 nmol/kg s.c. Q2D,−35.07**** %
